Measured values reported in publication PMC12591484 (PLOS One, 2025).
Like-named read-outs stand apart in the source and are kept apart here.

Experiments:
[1] = target: T1, α1M236Cβ3γ2L GABAA receptors (Homo sapiens, UniProt P14867+P18507+P28472, M263C); experiment: Drug protection from pCMBS modification (SCAMP); type: cell-based; conditions: α1M236C (α–); pCMBS 10 µM x 30 s; […] etomidate, 8 µM R-mTFD-MPAB or 10 µM pTFD-di-iPr-BnOH; n = 5
T1 construct: expressed in transfected cells; host or cells: Xenopus oocytes injected with capped mRNA, 1α:1β:5γ
Protocol: (§1) Experiments were performed in ND-96 buffer at room temperature (20–22°C). Oocytes were placed in a low-volume (30µl) flow chamber and impaled with borosilicate microelectrodes filled with 3M KCl (resistance 0.5–3 MΩ) and voltage-clamped at −50 mV (model OC-725C; Warner Instruments, Hamden, CT, USA). Superfusate solutions in ND-96 were delivered at 2 ml/min from glass syringe reservoirs via computer-controlled valves (VC-8; Warner Instruments), a micro-manifold (ALA-VM8; ALA Scientific Instruments, Farmingdale, NY, USA), and PTFE tubing. Currents were digitized at 200 Hz on a computer running ClampEx v8.0 software (Molecular Devices, San Jose, CA, USA). Digitized traces were filtered with a 10-Hz low-pass Bessel function, leak corrected and analyzed for peak amplitude off-line using Clampfit v8 software (Molecular Devices).
(§2) Drug protection from pCMBS modification was assessed under pCMBS exposure conditions that produced approximately half of the maximal modification ratio for each mutant receptor, and a least a value of 3. This approach balanced the magnitude of functional modification signals (smaller with less pCMBS exposure) against the challenge of using a reversibly bound ligand to competitively block an irreversible covalent cysteine-modifying reaction. […] Each oocyte was used in a single SCAMP experiment. […] Etomidate was used as a positive control for anesthetic protection in α1M236C and β3M286C mutants and as a negative control in α1S270C, α1A291C, β3L231C, γ2S301C, γ2I242C, and γ2L246C mutants. R-mTFD-MPAB was used as a positive control in α1S270C, α1A291C, β3L231C, and γ2LS301C mutants and as a negative control in α1M236C and β3M286C mutants. For each cysteine mutant and protective drug combination, five oocytes were studied.
(§3) Non-linear least squares fits and statistical analyses were performed in Prism 10.4.0. (GraphPad Software, San Diego, CA, USA). […] Protection (steric inhibition of pCMBS modification) was inferred when anesthetics produced significant reductions in modification ratios relative to control (no anesthetic) values. The statistical significance threshold was p < 0.05.

[2] = test system: α1β3γ2L GABAA receptors, bulky mutation at α1L232; parameters: key: +: Mutant-function studies are deemed positive when bulky mutations (mostly tryptophans) at the site significantly reduce positive modulation by anesthetics; -: Negative results are indicated by “–“ symbols; conditions: cited from earlier work
[3] = test system: α1β3γ2L GABAA receptors, bulky mutation at α1M236; parameters: key: +: Mutant-function studies are deemed positive when bulky mutations (mostly tryptophans) at the site significantly reduce positive modulation by anesthetics; -: Negative results are indicated by “–“ symbols; conditions: cited from earlier work
[4] = test system: α1β3γ2L GABAA receptors, bulky mutation at β3L231; parameters: key: +: Mutant-function studies are deemed positive when bulky mutations (mostly tryptophans) at the site significantly reduce positive modulation by anesthetics; -: Negative results are indicated by “–“ symbols; conditions: cited from earlier work
[5] = test system: α1β3γ2L GABAA receptors, bulky mutation at γ2S301; parameters: method as in PMID 30696720; key: +: Mutant-function studies are deemed positive when bulky mutations (mostly tryptophans) at the site significantly reduce positive modulation by anesthetics; -: Negative results are indicated by “–“ symbols; conditions: cited from earlier work
[6] = test system: α1β3γ2L GABAA receptors, substituted cysteine at β3M227 (β3– M1); parameters: key: +: Mutant-function studies are deemed positive when bulky mutations (mostly tryptophans) at the site significantly reduce positive modulation by anesthetics; -: Negative results are indicated by “–“ symbols; conditions: previously reported; cited from earlier work
[7] = target: T2, α1β3M286Cγ2L GABAA receptors (Homo sapiens, UniProt P14867+P18507+P28472, M311C); experiment: Drug protection from pCMBS modification (SCAMP); type: cell-based; parameters: key: +: Mutant-function studies are deemed positive when bulky mutations (mostly tryptophans) at the site significantly reduce positive modulation by anesthetics; -: Negative results are indicated by “–“ symbols; conditions: results of this study (*); etomidate cell also cites [16]
T2 construct: expressed in transfected cells; host or cells: Xenopus oocytes injected with capped mRNA, 1α:1β:5γ
Protocol: as §1, §2, §3

[8] = target: T3, α1β3L231Cγ2L GABAA receptors (Homo sapiens, UniProt P14867+P18507+P28472, L256C); experiment: Drug protection from pCMBS modification (SCAMP); type: cell-based; parameters: key: +: SCAMP is Substituted Cysteine Modification and Protection and is positive when adding anesthetic to cysteine modifier significantly reduces persistent post-exposure effects due to covalent modification; -: Negative results are indicated by “–“ symbols; conditions: results of this study (*); some cells also cite [9]
T3 construct: expressed in transfected cells; host or cells: Xenopus oocytes injected with capped mRNA, 1α:1β:5γ
Protocol: as §1, §2, §3

[9] = test system: α1β3γ2L GABAA receptors, substituted cysteine at α1L232 (α1– M1); parameters: key: +: Mutant-function studies are deemed positive when bulky mutations (mostly tryptophans) at the site significantly reduce positive modulation by anesthetics; -: Negative results are indicated by “–“ symbols; conditions: previously reported; cited from earlier work
[10] = test system: α1β3γ2L GABAA receptors, substituted cysteine at β3M227 (β3– M1); parameters: key: +: SCAMP is Substituted Cysteine Modification and Protection and is positive when adding anesthetic to cysteine modifier significantly reduces persistent post-exposure effects due to covalent modification; -: Negative results are indicated by “–“ symbols; conditions: previously reported; cited from earlier work

T2 sequence (P14867 28-456): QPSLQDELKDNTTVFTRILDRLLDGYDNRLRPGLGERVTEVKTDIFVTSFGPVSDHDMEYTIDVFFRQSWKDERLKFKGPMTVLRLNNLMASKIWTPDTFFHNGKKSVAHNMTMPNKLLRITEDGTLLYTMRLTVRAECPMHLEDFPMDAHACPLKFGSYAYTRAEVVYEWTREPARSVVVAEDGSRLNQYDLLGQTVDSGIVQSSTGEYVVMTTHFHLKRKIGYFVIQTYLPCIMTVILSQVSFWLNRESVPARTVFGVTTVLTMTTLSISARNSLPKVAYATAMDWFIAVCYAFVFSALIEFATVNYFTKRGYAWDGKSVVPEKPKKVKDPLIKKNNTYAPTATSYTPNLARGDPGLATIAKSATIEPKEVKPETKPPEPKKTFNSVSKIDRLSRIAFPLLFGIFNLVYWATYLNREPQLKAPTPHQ
T2 sequence (P28472 26-473 M311C): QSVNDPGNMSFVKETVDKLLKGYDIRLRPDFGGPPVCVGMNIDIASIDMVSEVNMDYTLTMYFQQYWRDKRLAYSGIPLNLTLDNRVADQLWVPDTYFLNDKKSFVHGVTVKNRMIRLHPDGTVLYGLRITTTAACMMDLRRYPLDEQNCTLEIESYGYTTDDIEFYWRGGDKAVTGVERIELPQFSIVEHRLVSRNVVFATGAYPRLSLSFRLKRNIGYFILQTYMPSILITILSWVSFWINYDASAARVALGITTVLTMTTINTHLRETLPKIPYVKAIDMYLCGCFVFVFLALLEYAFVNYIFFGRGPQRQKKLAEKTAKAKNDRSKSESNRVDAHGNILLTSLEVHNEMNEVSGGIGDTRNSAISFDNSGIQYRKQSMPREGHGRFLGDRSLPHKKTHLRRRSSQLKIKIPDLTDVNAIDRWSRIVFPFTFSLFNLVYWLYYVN
T2 sequence (P18507 40-475): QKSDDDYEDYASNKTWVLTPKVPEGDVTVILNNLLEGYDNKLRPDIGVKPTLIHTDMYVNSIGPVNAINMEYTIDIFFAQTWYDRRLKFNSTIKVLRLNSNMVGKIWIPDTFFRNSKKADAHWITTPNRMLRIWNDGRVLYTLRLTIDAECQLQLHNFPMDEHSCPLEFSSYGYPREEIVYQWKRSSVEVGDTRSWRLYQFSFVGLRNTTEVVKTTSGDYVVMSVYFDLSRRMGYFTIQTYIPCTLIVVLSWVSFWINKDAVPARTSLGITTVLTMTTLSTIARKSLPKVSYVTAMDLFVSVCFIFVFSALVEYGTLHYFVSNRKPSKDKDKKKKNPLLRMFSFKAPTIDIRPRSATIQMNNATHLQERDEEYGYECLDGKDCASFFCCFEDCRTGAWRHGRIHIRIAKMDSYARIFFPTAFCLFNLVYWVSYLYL
T3 sequence (P14867 28-456): as the sequence (P14867 28-456) above
T3 sequence (P28472 26-473 L256C): as the sequence (P28472 26-473 M311C) above, with L231C, C286M counted along it
T3 sequence (P18507 40-475): as the sequence (P18507 40-475) above
T1 sequence (P14867 28-456 M263C): as the sequence (P14867 28-456) above, with M236C counted along it
T1 sequence (P28472 26-473): as the sequence (P28472 26-473 M311C) above, with C286M counted along it
T1 sequence (P18507 40-475): as the sequence (P18507 40-475) above

Compound | protection from pCMBS modification (significant reduction of modification ratio vs control, p < 0.05) [1] | Mutant-function result, α1– (M1) L232 [2] | Mutant-function result, α1– (M1) M236 [3] | Mutant-function result, β3– (M1) L231 [4] | Mutant-function result, γ2+ (M2, M3) S301 [5] | SCAMP result, β3– (M1) M227 [6] | SCAMP result, β3+ (M2, M3) M286 [7] | SCAMP result, β3– (M1) L231 [8] | SCAMP result, α1– (M1) L232 [9] | SCAMP result, β3– (M1) M227 [10]
CCOC(=O)c1cncn1[C@H](C)c1ccccc1 [etomidate, R-etomidate] | protection was inferred | +^[9, 12] | +^[9], [12] | +^[9] | -^[13] | -^[9] |  |  |  | 
CC(C)c1cc(C2(C(F)(F)F)N=N2)cc(C(C)C)c1CO [pTFD-di-iPr-BnOH] |  |  |  |  |  |  | -* | +* |  | 
C=CCC1(c2cccc(C3(C(F)(F)F)N=N3)c2)C(=O)NC(=O)N(C)C1=O (stereo not shown) [R-mTFD-MPAB, R-5-allyl-1-methyl-5-(m-trifluoromethyl-diazirynylphenyl) barbituric acid] |  | -^[9] | -^[9] | -^[9] | +^[13] |  | -* | +^[9], * | -^[9] | +^[9]
